Measurements reported in patent publication US20250230193A1, “CYCLIC COMPOUND HAVING SELECTIVE KRAS INHIBITORY EFFECT ON HRAS AND NRAS” (CHUGAI SEIYAKU KABUSHIKI KAISHA, priority 2022, published 2025).

Legend:
[1] = target: GDP-bound HRAS wild-type protein (Homo sapiens, UniProt P01112); assay: Binding to HRAS by surface plasmon resonance (SPR), Single Cycle Kinetics; details: SPR; for HRAS/KRAS (ratio of KD value for HRAS to KD value for KRAS): GDP-bound HRAS wild-type vs GDP-bound KRAS wild-type
Chain of GDP-bound HRAS wild-type protein (P01112 whole entry): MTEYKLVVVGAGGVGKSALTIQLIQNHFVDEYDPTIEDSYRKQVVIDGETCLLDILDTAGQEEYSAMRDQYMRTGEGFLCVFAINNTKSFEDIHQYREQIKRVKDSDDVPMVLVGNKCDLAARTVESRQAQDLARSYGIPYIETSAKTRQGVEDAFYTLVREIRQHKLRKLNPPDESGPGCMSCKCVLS

[2] = target: GDP-bound NRAS wild-type protein (Homo sapiens, UniProt P01111); assay: Binding to NRAS by surface plasmon resonance (SPR), Single Cycle Kinetics; details: SPR; for NRAS/KRAS (ratio of KD value for NRAS to KD value for KRAS): GDP-bound NRAS wild-type vs GDP-bound KRAS wild-type
Chain of GDP-bound NRAS wild-type protein (P01111 whole entry): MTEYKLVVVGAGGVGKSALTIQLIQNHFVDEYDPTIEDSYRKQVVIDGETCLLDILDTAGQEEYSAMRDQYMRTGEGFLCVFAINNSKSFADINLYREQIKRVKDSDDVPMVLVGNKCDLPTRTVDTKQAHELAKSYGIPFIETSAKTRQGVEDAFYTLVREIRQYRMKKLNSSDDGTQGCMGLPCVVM

## CCO[C@@H]1C[C@H]2C(=O)NC3(CCC3)C(=O)N(C)[C@@H](C3CCCC3)C(=O)N(C)[C@H](C(=O)N(C)C)CC(=O)N(C)[C@@H](CC3CC3)C(=O)N[C@@H]([C@@H](C)CC)C(=O)N(C)CC(=O)N(C)[C@H]3CCCCCN(C3=O)[C@@H](Cc3ccc(C(F)(F)F)cc3)C(=O)N(C)CC(=O)N[C@@H](CCc3cc(F)c(C(F)(F)F)c(F)c3)C(=O)N2C1 [PP0667]
[1]
  HRAS/KRAS (ratio of KD value with respect to GDP-bound HRAS wild-type protein to KD value with respect to KRAS): B (a compound having 3 or more and less than 10 is denoted as B)
[2]
  NRAS/KRAS (ratio of KD value with respect to GDP-bound NRAS wild-type protein to KD value with respect to KRAS): B (a compound having 3 or more and less than 10 is denoted as B)

## CCO[C@@H]1C[C@H]2C(=O)NC3(CCC3)C(=O)N(C)[C@@H](C3CCCC3)C(=O)N3CCC[C@@H]3CC(=O)N(C)[C@@H](CC3CC3)C(=O)N[C@@H]([C@@H](C)CC)C(=O)N(C)CC(=O)N(C)[C@H]3C/C=C\CCN(C3=O)[C@@H](Cc3ccc(C(F)(F)F)cc3)C(=O)N(C)CC(=O)N[C@@H](CCc3cc(F)c(C(F)(F)F)c(F)c3)C(=O)N2C1 [PP1613]
[1]
  HRAS/KRAS (ratio of KD value for HRAS to KD value for KRAS): B (a compound having 3 or more and less than 10 is denoted as B)
[2]
  NRAS/KRAS (ratio of KD value for NRAS to KD value for KRAS): B (a compound having 3 or more and less than 10 is denoted as B)

## CCC[C@H]1C(=O)N[C@@H]([C@@H](C)CC)C(=O)N(C)CC(=O)N(C)[C@H]2C/C=C\CCN(C2=O)[C@@H](Cc2ccc(C)cc2)C(=O)N(C)CC(=O)N[C@@H](CCc2ccc(C(F)(F)F)c(OC)c2)C(=O)N2CC3(CC3)C[C@H]2C(=O)NC2(CC(C)(C)C2)C(=O)N(C)[C@@H]([C@@H](C)CC)C(=O)N(C)[C@H](C(=O)N(C)C)CC(=O)N1C [PP3011]
[1]; GDP-bound wild-type proteins
  HRAS/KRAS (ratio of KD value with respect to GDP-bound HRAS wild-type protein to KD value with respect to KRAS): B (a compound having 3 or more and less than 10 is denoted as B)
[2]; GDP-bound wild-type proteins
  NRAS/KRAS (ratio of KD value with respect to GDP-bound NRAS wild-type protein to KD value with respect to KRAS): A (a compound having 10 or more and less than 20 is denoted as A)

## CCC[C@H]1C(=O)N[C@@H]([C@@H](C)CC)C(=O)N(C)CC(=O)N(C)[C@H]2C/C=C\CCN(C2=O)[C@@H](Cc2ccc(C(F)(F)F)cc2)C(=O)N(C)CC(=O)N[C@@H](CCc2cc(F)c(C(F)(F)F)c(F)c2)C(=O)N2C[C@H](OCC)C[C@H]2C(=O)NC2(CC(C)(C)C2)C(=O)N(C)[C@@H]([C@@H](C)CC)C(=O)N(C)[C@H](C(=O)N(C)C)CC(=O)N1C [PP1941]
[1]
  HRAS/KRAS (ratio of KD value for HRAS to KD value for KRAS): A (a compound having 10 or more and less than 20 is denoted as A)
[2]
  NRAS/KRAS (ratio of KD value for NRAS to KD value for KRAS): A (a compound having 10 or more and less than 20 is denoted as A)

## CCO[C@@H]1C[C@H]2C(=O)NC3(CCC3)C(=O)N(C)[C@@H](C3CCCC3)C(=O)N(CC)[C@H](C(=O)N3CCOCC3)CC(=O)N(C)[C@@H](CC(C)C)C(=O)N[C@@H]([C@@H](C)CC)C(=O)N(C)CC(=O)N(C)[C@H]3CCCCN(C3=O)[C@@H](Cc3ccc(C(F)(F)F)cc3)C(=O)N(C)CC(=O)N[C@@H](CCc3cc(F)c(C(F)(F)F)c(F)c3)C(=O)N2C1 [PP0648]
[1]
  HRAS/KRAS (ratio of KD value with respect to GDP-bound HRAS wild-type protein to KD value with respect to KRAS): B (a compound having 3 or more and less than 10 is denoted as B)
[2]
  NRAS/KRAS (ratio of KD value with respect to GDP-bound NRAS wild-type protein to KD value with respect to KRAS): B (a compound having 3 or more and less than 10 is denoted as B)

## CCO[C@@H]1C[C@H]2C(=O)NC3(CC(C)(C)C3)C(=O)N(C)[C@@H](C3CCCC3)C(=O)N(C)[C@H](C(=O)N(C)C)CC(=O)N(C)[C@@H](CC(F)(F)F)C(=O)N[C@@H]([C@@H](C)CC)C(=O)N(C)CC(=O)N(C)[C@H]3C/C=C\CCN(C3=O)[C@@H](Cc3ccc(C(F)(F)F)cc3)C(=O)N(C)CC(=O)N[C@@H](CCc3cc(F)c(C(F)(F)F)c(F)c3)C(=O)N2C1 [PP1644]
[1]
  HRAS/KRAS (ratio of KD value for HRAS to KD value for KRAS): A (a compound having 10 or more and less than 20 is denoted as A)
[2]
  NRAS/KRAS (ratio of KD value for NRAS to KD value for KRAS): A (a compound having 10 or more and less than 20 is denoted as A)

## CCO[C@@H]1C[C@H]2C(=O)NC3(CC(C)(C)C3)C(=O)N(C)[C@@H](C(CC)CC)C(=O)N(C)[C@H](C(=O)N(C)C)CC(=O)N(C)[C@H]3CCCCCCc4ccc(cc4)C[C@@H](C(=O)N(C)CC(=O)N[C@@H](CCc4ccc(C(F)(F)F)c(OC)c4)C(=O)N2C1)N1CC/C=C\C[C@@H](C1=O)N(C)C(=O)CN(C)C(=O)[C@H]([C@@H](C)CC)NC3=O [PP3032]
[1]; GDP-bound wild-type proteins
  HRAS/KRAS (ratio of KD value with respect to GDP-bound HRAS wild-type protein to KD value with respect to KRAS): A (a compound having 10 or more and less than 20 is denoted as A)
[2]; GDP-bound wild-type proteins
  NRAS/KRAS (ratio of KD value with respect to GDP-bound NRAS wild-type protein to KD value with respect to KRAS): AA (a compound having 20 or more is denoted as AA)
